The text below walks through data of patent US11566049B2, “Cyclic peptides and uses thereof” (LATERAL IP PTY LTD, priority 2018, dated 2023).

The subject of this test is dorsal horn neurons. The experiment in a line: whole-cell recording of dorsal horn neurons in spinal cord slices from Chung models (Example 4). The format is cell-based, rat. To be noted: 1 μM; for Input Resistance, mean in presence of peptide / Membrane Potential, mean in presence of peptide: all cells; for Normalised Input Resistance / Normalised Input Resistance ΔIR: control = 100; for effect on membrane potential and activity of dorsal horn neurons: ipsilateral to injury; for Normalised Membrane Potential / Normalised Membrane Potential ΔVm: rest = 100; for ΔIR, change in neuronal input resistance: vs control, in table positive = reduction, negative = increase; for ΔVm, change in membrane potential: vs rest, in table positive = hyperpolarisation, negative = depolarisation; for reversal potential of induced response (VI plots intersect): single cells. The procedure: Adult male Sprague-Dawley rats, weighing 220-250 g (aged/weeks and older) at the time of surgery, were used in this study. They were housed in groups of 4, in an air-conditioned room, on a 12-hour light/dark cycle with food and water available ad libitum. All experiments were performed in accordance with the U.K. Animals (Scientific Procedures) Act (1986).
The animals were housed in groups of 4 in an air-conditioned room on a 12-hour light/dark cycle. Food and water were available ad libitum. They were allowed to acclimatise to the environment for experiments for three days by leaving them on a raised metal mesh for at least 40 min. The baseline paw withdrawal threshold (PWT) was examined using a series of graduated von Frey hairs (see below) for 3 consecutive days before surgery and re-assessed on the 6th to 8th day after surgery and on the 12th to 14th day after surgery before drug dosing.
Each rat was anaesthetized with 5% isoflurane mixed with oxygen (2 L per min) followed by an intramuscular (i.m.) injection of ketamine 90 mg/kg plus xylazine 10 mg/kg. The back was shaved and sterilized with povidone-iodine. The animal was placed in a prone position and a para-medial incision was made on the skin covering the L4-6 level. The L5 spinal nerve was carefully isolated and tightly ligated with 6/0 silk suture. The wound was then closed in layers after a complete haemostasis. A single dose of antibiotics (Amoxipen, 15 mg/rat, i.p.) was routinely given for prevention of infection after surgery. The animals were placed in a temperature-controlled recovery chamber until fully awake before being returned to their home cages.
LAT9993 LoopS (SEQ ID NO:28), SEQ11+LAT9993 Loop (SEQ ID NO:32; […]), SEQ25+LAT9993 Loop (SEQ ID NO:33; […]), LAT9993 SLoop A4 (SEQ ID NO:30), LAT9993 SLoop A7 (SEQ ID NO:31), LAT9993 SLoop A9 (SEQ ID NO:34; SCRSRPVEASC) and LAT9993 SLoop A10 (SEQ ID NO:35; SCRSRPVESAC), were solubilised in distilled water and made up as concentrated stocks and stored frozen until the day of experiment when they were diluted to the required test concentrations in artificial cerebrospinal fluid (aCSF), as described in Example 3, above.
Ten to fourteen days after surgery, animals were placed in individual Perspex boxes on a raised metal mesh for at least 40 minutes prior to PWT testing. Starting with the filament of lowest force (1 g), each filament was applied perpendicularly to the centre of the ventral surface of the paw until slightly bent for 6 seconds. If the animal withdrew or lifted its paw upon stimulation, a von Frey hair with force immediately lower than that tested was subsequently used. If no response was observed, then a hair with force immediately higher was tested. The lowest amount of force required to induce reliable responses (positive in 2 out of 3 trials) was recorded as the value of PWT. Only animals showing significant mechanical allodynia (PWT≤3.5 g) were selected for subsequent electrophysiological experiments (see FIG. 5).
Once validation of a neuropathic state had been confirmed, animals were terminally anesthetized using isoflurane (Norvartis Animal Health UK Ltd.), cervically dislocated and decapitated. A laminectomy was performed and the spinal cord, with spinal roots and DRG attached, removed and cut into 250-450 μm thick slices using a Leica VT1000S vibrating microtome (Leica Microsystems UK, Milton Keynes, United Kingdom). Slices were maintained in artificial cerebrospinal fluid (aCSF) at room temperature for 1 hr after slicing before recording. For recording, individual slices were held between two grids in a custom-built chamber continuously perfused with aCSF at a rate of 4-10 ml.min^−1, illuminated from below, and viewed under a dissection microscope. The aCSF was of the following composition (mM): NaCl, 127; KCl, 1.9; KH2PO4, 1.2; CaCl2, 2.4; MgCl2, 1.3; NaHCO3, 26; D-glucose, 10; equilibrated with 95% O2-5% CO2. […]

The mark [1] stands for this setting: listed as SEQ 11 + LAT9993 Loop.

Where “and” joins values, the source holds several entries; their conditions need not be identical. Equal values may be shown once. Entries after “also recorded” stand apart in the source; their conditions may differ.

As for “CRSRPVESSCSSKFSWDEYEQYKKE (listed as Homo sapiens) [SEQ25+LAT9993 Loop, peptide variant of formula (I)]”, the “dorsal root afferent-mediated EPSPs / synaptic inputs (words)” value is recorded as “suppressed dorsal root-evoked excitatory posts-synaptic potentials (EPSPs) in one neurone; also recorded: suppressed dorsal root afferent-mediated synaptic inputs; also recorded: partly suppressed”; the “Input Resistance, mean in presence of peptide” value (“Input Resistance, mean” for short) is 339.6±97.6 MΩ; the “Membrane Potential, mean in presence of peptide” value (“Membrane Potential, mean” for short) was −49.1±3.0 mV; the “Normalised Input Resistance” value is 101.7. The “Normalised Input Resistance ΔIR” value was −1.7; the “effect on membrane potential and activity of dorsal horn neurons” value (shortened to “effect”) is “induced inhibition of spontaneous activity and suppressed an after-depolarising potential; also recorded: slight depolarisation of the membrane potential”; the “Normalised Membrane Potential” value is 93.7; the “Normalised Membrane Potential ΔVm” value worked out at 6.3. Besides, the “ΔIR, change in neuronal input resistance” value was found to be 1.4±18.2 MΩ and the “ΔVm, change in membrane potential” value turned out to be 3.4±0.9 mV. Moreover, for the setting “listed as SEQ25 + LAT9993 Loop”, the “Input Resistance, mean” value was determined as 339.6 MΩ; the “Membrane Potential, mean” value is on record as −49.1 mV; the “ΔIR, change in neuronal input resistance” value was −1.4 MΩ; the “ΔVm, change in membrane potential” value is −3.4 mV.

Regarding “IDPSSEAPGHSCRSRPVESSC (listed as Homo sapiens) [SEQ11+LAT9993 Loop, peptide variant of formula (I)]”, the “dorsal root afferent-mediated EPSPs / synaptic inputs (words)” value is listed as “little effect; also recorded: No obvious effect”; the “Input Resistance, mean” value is 338.1±103.7 MΩ; the “Membrane Potential, mean” value is −52.3±9.8 mV; the “Normalised Input Resistance” value came out at 85.6. For the same sequence, the “Normalised Input Resistance ΔIR” value amounted to 14.4; the “effect” value is “membrane hyperpolarisation and inhibition of activity in 2 neurons; also recorded: membrane depolarisation in the other neurone”; the “Normalised Membrane Potential” value is 101.4; the “Normalised Membrane Potential ΔVm” value is on record as −1.4. In addition, the “reversal potential of induced response (VI plots intersect)” value (“reversal potential of induced response” below) is “around −65 mV”; the “ΔIR, change in neuronal input resistance” value was 109.5±140.2 MΩ; the “ΔVm, change in membrane potential” value amounted to 1.6±3.4 mV. For the same sequence, under setting [1], the “Input Resistance, mean” value is reported as 338.1 MΩ; the “Membrane Potential, mean” value is on record as −52.3 mV; the “ΔIR, change in neuronal input resistance” value is 109.5 MΩ; the “ΔVm, change in membrane potential” value came out at 1.6 mV.

For the sequence “SCRARPVESSC (listed as Homo sapiens) [LAT9993 SLoop A4, peptide variant of formula (I)]”, the “dorsal root afferent-mediated EPSPs / synaptic inputs (words)” value is given as “suppressed”; the “Input Resistance, mean” value was 294.6±40.7 MΩ; the “Membrane Potential, mean” value was −53.3±5.1 mV; the “Normalised Input Resistance” value turned out to be 78.3. Moreover, the “Normalised Input Resistance ΔIR” value is 21.7; the “effect” value was “membrane hyperpolarisation and inhibition of activity in 1 neurone; also recorded: membrane depolarisation in 3 neurons”; the “Normalised Membrane Potential” value came to 107.7; the “Normalised Membrane Potential ΔVm” value is −7.7. For the same sequence, the “ΔIR, change in neuronal input resistance” value was determined as 103.1±55.5 MΩ and the “ΔVm, change in membrane potential” value turned out to be 4.2±3.1 mV. Moreover, under “listed as LAT9993 Sloop A4”, the “Input Resistance, mean” value was found to be 294.6 MΩ; the “Membrane Potential, mean” value is −53.3 mV; the “ΔIR, change in neuronal input resistance” value was determined as 103.1 MΩ; the “ΔVm, change in membrane potential” value is 4.2 mV. Also, where the note is “listed as LAT9993 Loop A4”, the “effect” value was “membrane hyperpolarisation and suppression of activity”; the “dorsal root afferent-mediated EPSPs / synaptic inputs (words)” value was “suppressed dorsal root-evoked excitatory synaptic transmission; also recorded: partly suppressed”.

Turning to “SCRSRPAESSC (listed as Homo sapiens) [LAT9993 SLoop A7, peptide variant of formula (I)]”, the “dorsal root afferent-mediated EPSPs / synaptic inputs (words)” value is listed as “suppressed dorsal root-evoked excitatory posts-synaptic potentials (EPSPs) in some neurons”; the “Input Resistance, mean” value was 292.9±81.3 MΩ and 292.9 MΩ; the “Membrane Potential, mean” value is −46.2±4.3 mV and −46.2 mV; the “Normalised Input Resistance” value was 93.3. The “Normalised Input Resistance ΔIR” value was determined as 6.7; the “effect” value is “membrane hyperpolarisation and inhibition of activity in 1 neurone; also recorded: membrane depolarisation in 1 neurone; also recorded: no effect on membrane potential in the remaining neurone”; the “Normalised Membrane Potential” value stood at 95.3; the “Normalised Membrane Potential ΔVm” value was 4.7. Besides, the “reversal potential of induced response” value was “around −90 mV”; the “ΔIR, change in neuronal input resistance” value was 22.8±59.8 MΩ and 22.8 MΩ. For the same sequence, under “listed as LAT9993 Loop A7”, the “effect” value is listed as “membrane depolarisation”; the “dorsal root afferent-mediated EPSPs / synaptic inputs (words)” value is on record as “suppressed dorsal root afferent-mediated excitatory synaptic inputs; also recorded: partly suppressed”.

With “SCRSRPVEASC (listed as Homo sapiens) [LAT9993 SLoop A9, peptide variant of formula (I)]”, the “dorsal root afferent-mediated EPSPs / synaptic inputs (words)” value is recorded as “little effect”; the “dorsal root-evoked IPSPs” value is “little effect”; the “Input Resistance, mean” value is 243.1±54.4 MΩ and 243.1 MΩ; the “Membrane Potential, mean” value was −45.6±11.2 mV and −45.6 mV. The “Normalised Input Resistance” value is given as 134.0, the “Normalised Input Resistance ΔIR” value is recorded as −34.0, the “Normalised Membrane Potential” value was 76.9 and the “Normalised Membrane Potential ΔVm” value turned out to be 23.1. The “reversal potential of induced response” value was “no obvious reversal potentials”. Under “listed as LAT9993 Loop A9”, the “effect” value was “membrane depolarisation in all neurons”; the “dorsal root afferent-mediated EPSPs / synaptic inputs (words)” value is on record as “no obvious effect; also recorded: little effect”.
